# Literature values as cited in paper PMC10673369, “Preliminary SAR of Novel Pleuromutilin–Polyamine Conjugates” (Microorganisms, 2023).
# Experiments:
# Design in all cases: method as in PMID 22191527, PMID 27742734, PMID 23836172, PMID 30019769
# [1] = test system: aerobic Gram-positive bacteria; settings: incl. MRSA, VISA, hVISA, VRSA, PRSP, multidrug-resistant S. pneumoniae, VRE; cited from earlier work
# [2] = test system: fastidious Gram-negative bacteria, including Haemophilus influenza and Moraxella catarrhalis; settings: incl. Haemophilus influenza and Moraxella catarrhalis; cited from earlier work
# [3] = test system: non-fastidious Gram-negative bacteria; settings: cited from earlier work
compound,measurement,setting,value
"C=C[C@]1(C)C[C@@H](OC(=O)CS[C@@H]2CC[C@@H](N)C[C@H]2O)[C@]2(C)[C@H](C)CC[C@]3(CCC(=O)[C@H]32)[C@@H](C)[C@@H]1O [Compound 6, lefamulin]",Antibacterial activity against aerobic Gram-positive bacteria,[1],potent antibacterial activity
same,Antibacterial activity against fastidious Gram-negative bacteria,[2],favorable to moderate activity
same,Antibacterial activity against non-fastidious Gram-negative bacteria,[3],no activity
